Assay results from the CATMoS acute toxicity set (Mansouri et al. 2021).

Experiments:
[1] = Very toxic (VT; LD50≤50mg/kg vs. all others); settings: rat; in vivo; po
Text: (§1) […]The data set underlying the modeling effort for this project was initially compiled by NICEATM and U.S. EPA’s CCTE. Briefly, LD50 data were collected from rat acute oral systemic toxicity tests, including limit tests, ranges/confidence intervals, and discrete LD50 values. The full data set included 21,200 LD50 entries for 15,688 substances. […] Data were reviewed to ensure that LD50 values with obvious errors in the extracted data such as unit conversion errors (e.g., comma and decimal separator misplacements) were either fixed or removed. After this review, 16,209 LD50 values remained. Many of the chemicals represented had multiple LD50 entries, requiring that a single representative value per Chemical Abstracts Service Registry Number (CASRN) identifier be defined to facilitate modeling efforts. Based on ATWG feedback and to define the representative LD50 as a protective value while accounting for the distribution across multiple LD50s, the median of the lowest quartile was computed using only discrete LD50 values (omitting limit test data and range and confidence interval data). A detailed summary of the data compilation is available online on the NICEATM webpage dedicated to the collaborative modeling project (NTP 2020).
(§2) […][…] For categorical designations, limit test and range/confidence interval LD50 data were integrated wherever possible. As such, the number of chemicals with end point values/calls varies across the modeling end points (Table 3) based on whether chemicals had representative LD50 values and/or other data. If a chemical had both, the representative value was used to determine categorical calls rather than limit test data. Some data were useable only for certain end points and categories depending on the thresholds. For example, ranges that spanned multiple hazard categories were considered only for the binary (very toxic/nontoxic) end points and omitted from rendering a determination for hazard category assignment.
(§3) […]The final data set comprising 11,992 chemicals was split into training and evaluation sets […], respectively. This process was performed semirandomly by ordering chemicals based on the five end points (categorical and continuous LD50 values) and partitioning every fourth record into the evaluation set accordingly. This approach was taken to ensure an equivalent distribution of the LD50 values and the different hazard categories between the training and the evaluation sets without supervised sampling of the chemicals based on structures (Figure 1A). The sources of the chemical structures were also kept equivalent between the two sets, with chemical structures obtained from DSSTox, being the highest quality, representing over 75% of each set (Figure 1B).

EPA categories = settings: rat; in vivo; po
Text: as §1, §2, §3

Row | Compound | very_toxic [1] | EPA category (EPA categories)
1 | CCCCCCCCCCCCCC[N+](C)(C)[O-] | FALSE (not_very_toxic) | 
2 | CCCCCCCCCCCCCCCCCCOP1OCC2(CO1)COP(OCCCCCCCCCCCCCCCCCC)OC2 (configuration not stated) | FALSE (not_very_toxic) | 
3 | CCO[SiH](OCC)OCC |  | 3
4 | CC(Cl)(Cl)CC(Cl)(Cl)Cl |  | 2
5 | CNC1=C(c2cccc(C(F)(F)F)c2)C(=O)C(c2ccccc2)O1 (configuration not stated) | FALSE (not_very_toxic) | 
6 | COCCOCCOCCOB(OCCOCCOCCOC)OCCOCCOCCOC | FALSE (not_very_toxic) | 
7 | O=[N+]([O-])c1cc(N(CCO)CCO)ccc1NCCO |  | 3
8 | Nc1ccc(N)c2c1C(=O)c1c(N)ccc(N)c1C2=O | FALSE (not_very_toxic) | 
9 | O=C1c2cccc(Sc3ccccc3)c2C(=O)c2c(Sc3ccccc3)cccc21 |  | 3
10 | CSc1c(C)cc(O)cc1C | FALSE (not_very_toxic) | 
11 | O=C1NC(=O)C2CCCC12 (configuration not stated) | FALSE (not_very_toxic) | 
12 | Cc1cncc(C)c1 |  | 2
